Test results from US8287923B2, “Compositions and methods for treating immune disorders” (priority 2005, dated 2012).

Experiments:
Type in all cases: cell-based, human
[1] = test system: NS-SV-AC cells; assay: Western blot of p38, ERK and JNK phosphorylation
Procedure: (§1) Western blot. Cells were washed in ice-cold PBS and lysed for 20 min in RIPA buffer containing 1% (v/v) Nonidet P-40, 0.5% (w/v) sodium deoxycholate, 0.1% (w/v) SDS, 10 μg/ml leupeptin, 3 μg/ml aprotinin and 100 mM phenylmethylsulfonyl fluoride (PMSF). Samples of lysates containing the same amount of protein were loaded in each lane (we used 5-30μg, depending on the antibody used) and electrophoretically separated on a 12% SDS polyacrylamide gel. Following electrophoresis, proteins were transferred to a PVDF membrane (Immobilon™-P, Millipore Corporation, Bedford, Mass.). The membrane was blocked for 1 h with 5% (w/v) non-fat dry milk powder in PBST (0.1% Tween-20 in PBS) and then incubated for 1 h with primary antibody diluted in PBST/milk (Antibodies and dilutions: rabbit polyclonal JNK1/2, […], mouse monoclonal pJNK1/2, 1:1000, rabbit polyclonal ERK, 1:2000, rabbit polyclonal p38, 1:1000, rabbit polyclonal pp 38, 1:1000 and goat polyclonal actin, 1:2000). The membrane was washed three times with PBST and incubated with peroxidase-conjugated, affinity-purified anti-rabbit IgG (Santa Cruz Biotechnology, Inc.) for 1 h. Following extensive washing, the reaction was developed by enhanced chemiluminescent staining using ECL Western blotting detection reagents (Amersham Pharmacia Biotech Inc., Piscataway, N.J.).
p38 activation is one mechanism by which GTPs attenuates mechanisms of SS pathogenesis. […] Therefore, of these three signaling pathways, EGCG activates primarily p38 in NS-SV-AC cells.

[2] = test system: NS-SV-AC cells; assay: Western analysis of autoantigen protein levels; settings: 100 uM
Procedure: as §1
(§2) To extend the mRNA data, the protein levels of 6 different autoantigens in NHEK and NS-SV-AC cells were determined by Western analysis following two treatments with 100 uM EGCSG at 24 and 48 hrs.

[3] = test system: NHEK; assay: Western analysis of autoantigen protein levels; settings: 100 uM
Procedure: as §1, §2

O=C(O[C@@H]1Cc2c(O)cc(O)cc2O[C@@H]1c1cc(O)c(O)c(O)c1)c1cc(O)c(O)c(O)c1 [EGCG, (−)-epigallocatechin-3-gallate]
pERK [1]: only a slight increase
phosphorylation of JNK [1]: not altered
phosphorylation of p38 [1]: rapid and sustained phosphorylation
time to p38 phosphorylation [1]: ≤ 30 min
Golgin-67 protein level ([2]; 24 hrs): reduced
PARP protein level ([2]; 24 hrs): significantly reduced
SS-A/Ro 52 protein level ([2]; 24 hrs): Neither SS-A/Ro 52 nor SS-B/La were significantly reduced
SS-B/La protein level ([2]; 24 hrs): Neither SS-A/Ro 52 nor SS-B/La were significantly reduced
coilin protein level ([2]; 24 hrs): significantly reduced
Golgin-67 protein level ([2]; 48 hrs): barely detectable
PARP protein level ([2]; 48 hrs): barely detectable
SS-A/Ro 52 protein level ([2]; 48 hrs): considerably reduced
SS-B/La protein level ([2]; 48 hrs): considerably reduced
coilin protein level ([2]; 48 hrs): barely detectable
PARP protein level ([3]; 24 hrs): significantly reduced
SS-A/Ro 52 protein level ([3]; 24 hrs): Neither SS-A/Ro 52 nor SS-B/La were significantly reduced
SS-B/La protein level ([3]; 24 hrs): Neither SS-A/Ro 52 nor SS-B/La were significantly reduced
coilin protein level ([3]; 24 hrs): significantly reduced
Golgin-67 protein level ([3]; 48 hrs): the reduction was not as marked and was only observed at 48 hrs
PARP protein level ([3]; 48 hrs): barely detectable
SS-A/Ro 52 protein level ([3]; 48 hrs): considerably reduced
SS-B/La protein level ([3]; 48 hrs): considerably reduced
coilin protein level ([3]; 48 hrs): barely detectable
